# Data: paper PMC13183915, “A platinum butterfly effect: small changes turn an anticancer drug into a non-toxic metalloantibiotic with in vivo efficacy” (npj Antimicrobials and Resistance, 2026)
# Several values for one entry are separate records, joined by “and”; a condition that tells them apart may be missing. Equal values may be shown once.
# How the values were obtained:
# VRSA VRS 4 = assay: Broth microdilution MIC, VRSA VRS 4; format: cell-based, S. aureus; settings: VRSA VRS 4
# Description: (§1) The data is given in supporting information (Table S5). Before starting the experiment, a single colony was picked from MHA plate, inoculated in MHBII and incubated overnight at 37 °C with shaking for 18–24 h to get the starter culture. Antibiotic susceptibility testing was conducted according to the CLSI (Clinical & Laboratory Standards Institute) guidelines using the broth microdilution assay. 10 mg/mL stock solutions of test compounds were prepared in DMSO. Bacterial cultures were inoculated in MHBII and optical density (OD) was measured at 600 nm, followed by dilution to achieve ~10^6 CFU/mL. The compounds were tested from 64 to 0.5 mg/L in two-fold serial diluted fashion with 2.5 μL of each concentration added to well of a 96-well round bottom microtiter plate. Later, 97.5 μL of bacterial suspension was added to each well containing either test compound or appropriate controls. […] The MIC is defined as the lowest concentration of the compound at which there is absence of visible growth. For each test compound, MIC determinations were carried out independently three times using duplicate samples.
# S. aureus ATCC 29213 [1] = assay: Drug interaction study (chequerboard assay); format: cell-based
# Description: All compounds were freshly prepared for the experiment. […] Following incubation, the fractional inhibitory concentration index (FICI) was calculated with the formula FICI = […], whereby FICA = MIC of drug A in combination/MIC of drug A alone and FICB = MIC of drug B in combination/MIC of drug B alone. A drug combination is considered synergistic when ∑FICI is ≤0.5, indifferent when ∑FICI is >0.5 to 4, and antagonistic when ∑FICI is >4.
# Escherichia coli W3110 = assay: MIC assay, E. coli; format: cell-based; settings: Table S1, unit not given; method: starting concentration 100 μM
# B. subtilis 168CA [2] = assay: MIC against B. subtilis 168CA (mode of action conditions); format: cell-based, Bacillus subtilis; settings: 16 h
# Description: To establish a starting concentration for the OSC assay, MICs against parent strain 168CA were determined under conditions equivalent to those used for mode of action assays. MICs were determined according to the Clinical Laboratory Standardization Institute (CLSI) in a serial microdilution assay. […] Cultures were incubated for 16 h at 37 °C under constant agitation. MICs were used as basis for OSC determination. To this end, growth curves were recorded using optical density (OD) measurements. Culture volumes of 20 mL were grown until reaching an OD600 of 0.3. […] An untreated culture served as control. Growth was followed until cultures reached the stationary phase. A concentration achieving 50–70% growth inhibition in exponential phase was selected as optimal stressor concentration.
# VRSA VRS 1 = assay: Broth microdilution MIC, VRSA VRS 1; format: cell-based, S. aureus; settings: VRSA VRS 1
# Description: as §1
# P. aeruginosa ATCC 27853 = assay: Broth microdilution MIC, P. aeruginosa ATCC 27853; format: cell-based, Pseudomonas aeruginosa
# Description: as §1
# Bacillus subtilis MW168 = assay: MIC assay, B. subtilis MW168; format: cell-based; settings: B. subtilis MW168
# [3] = set-up: method as in PMID 34018686; settings: cited from earlier work
# B. subtilis 168CA [4] = assay: DiSC3(5)-based membrane potential measurement; format: cell-based, Bacillus subtilis; settings: 3.125 µM Pt1, 25 µM Pt8
# Description: The membrane potential was measured according to Winkel et al. with minor modifications. B. subtilis 168CA was grown in LB containing 50 µg/mL bovine serum albumin (BSA). Cells were transferred to black 96-well polystyrene microtiter plates after reaching an OD600 of 0.3. DiSC3(5) was added to a final concentration of 1 µM, maintaining a constant concentration of 1% DMSO to avoid precipitation of the dye. After the fluorescence baseline had stabilized, antibiotic compounds were added, and measurements were continued for 30 min. Fluorescence was recorded at an excitation wavelength of 610–30 nm and an emission wavelength of 675–50 nm in a BMG Clariostar Plus plate reader.
# MRSA NRS 129 = assay: Broth microdilution MIC, MRSA NRS 129; format: cell-based, S. aureus; settings: MRSA NRS 129
# Description: as §1
# E. coli (NCTC 13476) = assay: MIC, E. coli NCTC 13476 (with or without PMBN); format: cell-based; settings: E. coli NCTC 13476 + 10 µg/mL PMBN (polymyxin B nonapeptide)
# MRSA NRS 186 = assay: Broth microdilution MIC, MRSA NRS 186; format: cell-based, S. aureus; settings: MRSA NRS 186
# Description: as §1
# S. aureus ATCC 29213 [5] = assay: Murine superficial skin infection model; format: in vivo; settings: topical 2% cream, twice daily for 4 days, Swiss mice
# Description: The in vivo efficacy of Pt1 was determined in a superficial skin infection model. Briefly, male Swiss mice, 4–6 weeks old, weighing ∼22–25 g, were used throughout the study. Mice were caged alone in an individually vented cage (IVC) to check cross-contamination and to maintain aseptic conditions throughout the experiment. Ketamine and xylazine were prepared in distilled water, 40 mg/kg and 8 mg/kg of body weight, respectively, and injected intraperitoneally (IP) as a mixture of 100 μL in each mouse for anaesthesia. Then, we proceeded with the removal of fur by applying depilatory cream. The area was cleaned with sterile distilled water. Approximately 2 cm^2 of skin area was scratched until it became visibly reddened and glistening without any bleeding. For bacterial infection, a 10 μL droplet containing 10^7 CFU/mL of S. aureus ATCC 29213 was applied to the reddened area of skin. To confirm the infection, post 4 h, untreated mice were sacrificed, skin homogenized, and various dilutions of the treatment groups (6 mice per group) were plated on TSA plates. […] Henceforth, the drug regimen was comprised of twice daily application (in the morning and the evening, with an 8 h interval) for 4 days. Control mice were regularly treated with 25–30 mg each of 2% fusidic acid (LEO Pharma, Ballerup, Denmark), 2% infuzide, and base (vehicle). […]
# MRSA NRS 194 = assay: Broth microdilution MIC, MRSA NRS 194; format: cell-based, S. aureus; settings: MRSA NRS 194
# Description: as §1
# K. pneumoniae BAA 1705 = assay: Broth microdilution MIC, K. pneumoniae BAA 1705; format: cell-based, Klebsiella pneumoniae
# Description: as §1
smiles,measurement,setting,value
C1=C\CC/C=C\CC/1.[Cl][Pt][Cl] [Pt1],MIC,VRSA VRS 4,0.67 to 1.34 µM
same,FIC B,S. aureus ATCC 29213 [1]; antibiotic in combination with Pt1 / alone,1
same,FIC (FICA+FICB),S. aureus ATCC 29213 [1]; combination with Pt1,2
same,Interference,"S. aureus ATCC 29213 [1]; combination with Pt1, synergistic ≤0.5, indifferent >0.5 to 4, antagonistic >4",no interaction
same,MIC,"S. aureus ATCC 29213 [1]; compound alone, Table S8",0.125 µg/mL
same,Antibacterial activity against E. coli,Escherichia coli W3110,> 100
same,MIC,B. subtilis 168CA [2],6.25 µM
same,MIC,VRSA VRS 1,0.67 to 1.34 µM
same,MIC,P. aeruginosa ATCC 27853,> 64 µg/mL
same,MIC,Bacillus subtilis MW168,6.25 µM
same,antibacterial activity in human serum,[3],lost its antibacterial activity completely
same,membrane depolarization (DiSC(3)5),B. subtilis 168CA [4],no membrane depolarization could be observed
same,MIC,MRSA NRS 129,0.125 – 0.25 µg/mL and 0.33–0.67 µM
same,MIC,E. coli (NCTC 13476),> 100 µM
same,MIC,MRSA NRS 186,0.125 – 0.25 µg/mL and 0.33–0.67 µM
same,reduction in bacterial load compared to vehicle-treated group,S. aureus ATCC 29213 [5],~ 1.9 log10 CFU/g
same,MIC,MRSA NRS 194,0.125 – 0.25 µg/mL and 0.33–0.67 µM
same,MIC,K. pneumoniae BAA 1705,> 64 µg/mL
